Data as given in US20090143279A1 (priority 2007, published 2009).
Like-named read-outs stand apart in the source and are kept apart here.

Legend:
[1] = test system: nuOXPHOS transcripts; assay type: cell-based, mouse; conditions: for nucOX (composite Z-score): normalized score vs mock-treated (DMSO) wells
[2] = test system: reactive oxygen species; assay type: cell-based, mouse; conditions: for ROS (composite Z-score): normalized score vs mock-treated (DMSO) wells
[3] = test system: mtOXPHOS transcripts; assay type: cell-based, mouse; conditions: for mitoOX (composite Z-score): normalized score vs mock-treated (DMSO) wells
[4] = test system: C2C12 myotubes; conditions: for Viability (composite Z-score): normalized score vs mock-treated (DMSO) wells
[5] = test system: mitochondrial membrane potential; assay type: cell-based, mouse; conditions: for ΔΨm (composite Z-score): normalized score vs mock-treated (DMSO) wells
[6] = test system: cellular dehydrogenase activity; conditions: for MTT (composite Z-score): normalized score vs mock-treated (DMSO) wells
[7] = test system: OXPHOS gene expression; assay type: cell-based, mouse; conditions: for GE-HTS (composite Z-score): normalized score vs mock-treated (DMSO) wells
[8] = test system: cytochrome c; assay type: cell-based, mouse; conditions: for cyt c (composite Z-score): normalized score vs mock-treated (DMSO) wells
[9] = composite Z-score vs mock-treated (DMSO) wells, Conc 20 μM
[10] = normalized composite Z-score vs mock-treated (DMSO) wells, Conc 20 μM
[11] = composite Z-score vs DMSO, Conc 4.42 μM
[12] = composite Z-score vs DMSO, Conc 20 μM

## CC(=O)O[C@@H]1CC2C(C)(CC[C@H](O)C2(C)C)C2CC[C@]3(C)C(=CC(=O)O[C@H]3c3ccoc3)C21C (stereo partly drawn) [3beta-hydroxydeoxodihydrodeoxygedunin]
[1]; Conc 20 μM
  nucOX (composite Z-score): −0.849
[2]; Conc 20 μM
  ROS (composite Z-score): 1.488
[3]; Conc 20 μM
  mitoOX (composite Z-score): −0.359
[4]; Conc 20 μM
  Viability (composite Z-score): −1.397
[5]; Conc 20 μM
  ΔΨm (composite Z-score): 1.048
[6]; Conc 20 μM
  MTT (composite Z-score): −0.656
[7]; Conc 20 μM
  GE-HTS (composite Z-score): −0.747
[8]; Conc 20 μM
  cyt c (composite Z-score): 0.142

## CC(=O)OC1CC2C(C)(C)[C@@H](O)CC[C@]2(C)C2CC[C@]3(C)[C@H](c4ccoc4)OC(=O)[C@H]4O[C@]43[C@]12C (stereo partly drawn) [3beta-hydroxydeoxodihydrogedunin]
[1]; [9]
  nucOX: −0.648
[2]; [9]
  ROS: 0.170
[3]; [9]
  mitoOX: −0.302
[4]; [9]
  Viability: −0.364
[5]; [9]
  ΔΨm: 0.674
[6]; [9]
  MTT: −0.540
[7]; [9]
  GE-HTS: −0.585
[8]; [9]
  cyt c: 0.591

## C=CC(C1=CC(=O)C(OC)=CC1=O)c1ccc(OC)cc1 (centres unmarked) [4,4′-dimethoxydalbergione]
[1]; [9]
  nucOX: −0.677
[2]; [9]
  ROS: −0.802
[3]; [9]
  mitoOX: −0.975
[4]; [9]
  Viability: −0.207
[5]; [9]
  ΔΨm: −0.993
[6]; [9]
  MTT: −2.648
[7]; [9]
  GE-HTS: −0.842
[8]; [9]
  cyt c: −1.432

## COc1ccc(-c2cc(=O)c3ccc(OC)cc3o2)cc1 [4,7-dimethoxyflavone]
[1]; [10]
  nucOX: 1.526
[2]; [10]
  ROS: 1.067
[3]; [10]
  mitoOX: 0.539
[4]; [10]
  Viability: −0.067
[5]; [10]
  ΔΨm: −0.795
[6]; [10]
  MTT: −0.472
[7]; [10]
  GE-HTS: 1.306
[8]; [10]
  cyt c: 0.031

## Cc1c(N)c(=O)n(-c2ccccc2)n1C [4-aminoantipyrine]
[1]; [11]
  nucOX: −0.041
[2]; [11]
  ROS: 0.564
[3]; [11]
  mitoOX: −0.450
[4]; [11]
  Viability: 0.530
[5]; [11]
  ΔΨm: −4.045
[6]; [11]
  MTT: −1.470
[7]; [11]
  GE-HTS: −0.182
[8]; [11]
  cyt c: 0.087

## NCCc1ccc(S(=O)(=O)F)cc1 [4-aminoethylbenzenesulfonyl fluoride]
[1]; [12]
  nucOX: −0.045
[2]; [12]
  ROS: 1.081
[3]; [12]
  mitoOX: 0.018
[4]; [12]
  Viability: −0.304
[5]; [12]
  ΔΨm: −0.356
[6]; [12]
  MTT: −1.406
[7]; [12]
  GE-HTS: −0.016
[8]; [12]
  cyt c: −0.485

## C=CC(C1=CC(=O)C(OC)=CC1=O)c1ccc(O)cc1 (centres unmarked) [4-methoxy-4′-hydroxy-dalbergione]
[1]; [9]
  nucOX: −1.406
[2]; [9]
  ROS: 0.639
[3]; [9]
  mitoOX: −1.071
[4]; [9]
  Viability: 1.548
[5]; [9]
  ΔΨm: 0.406
[6]; [9]
  MTT: −0.877
[7]; [9]
  GE-HTS: −1.401
[8]; [9]
  cyt c: 0.803

## COc1ccccc1-c1cc(=O)c2c(OC)cccc2o1 [5,2′-dimethoxyflavone]
[1]; [10]
  nucOX: −0.881
[2]; [10]
  ROS: 0.645
[3]; [10]
  mitoOX: −0.607
[4]; [10]
  Viability: −0.228
[5]; [10]
  ΔΨm: 1.002
[6]; [10]
  MTT: −0.219
[7]; [10]
  GE-HTS: −0.862
[8]; [10]
  cyt c: 1.046

## C=C1CCC2C(CC2(C)C)C(=C)CCC1=NO (centres unmarked) [5-hydroxyiminoisocaryophyllene]
[1]; [9]
  nucOX: −0.273
[2]; [9]
  ROS: 0.922
[3]; [9]
  mitoOX: 0.421
[4]; [9]
  Viability: 0.181
[5]; [9]
  ΔΨm: 0.413
[6]; [9]
  MTT: 1.325
[7]; [9]
  GE-HTS: −0.023
[8]; [9]
  cyt c: 0.117

## O=C(O)c1cc([N+](=O)[O-])ccc1NCCCc1ccccc1 [5-nitro-2-phenylpropylaminobenzoic acid]
[1]
  nucOX (composite Z-score vs DMSO): 0.089
[2]
  ROS (composite Z-score vs DMSO): 0.872
[3]
  mitoOX (composite Z-score vs DMSO): −0.075
[4]
  Viability (composite Z-score vs DMSO): −0.939
[5]
  ΔΨm (composite Z-score vs DMSO): −0.937
[6]
  MTT (composite Z-score vs DMSO): −0.786
[7]
  GE-HTS (composite Z-score vs DMSO): 0.038
[8]
  cyt c (composite Z-score vs DMSO): 0.412

## C[C@]12CC[C@H](O)C[C@@H]1CC[C@@H]1[C@@H]2CC[C@]2(C)[C@@H](O)CC[C@@H]12 [5alpha-androstan-3beta,17beta-diol]
[1]; [12]
  nucOX: 0.059
[2]; [12]
  ROS: 0.607
[3]; [12]
  mitoOX: 0.270
[4]; [12]
  Viability: −0.204
[5]; [12]
  ΔΨm: −1.116
[6]; [12]
  MTT: −0.454
[7]; [12]
  GE-HTS: 0.123
[8]; [12]
  cyt c: 0.280

## CC(C)CCC[C@@H](C)[C@H]1CC[C@H]2[C@@H]3CC(=O)[C@H]4C[C@@H](O)CC[C@]4(C)[C@H]3CC[C@]12C [5alpha-cholestan-3beta-ol-6-one]
[1]; [12]
  nucOX: −0.603
[2]; [12]
  ROS: 0.397
[3]; [12]
  mitoOX: −0.862
[4]; [12]
  Viability: −0.430
[5]; [12]
  ΔΨm: 0.479
[6]; [12]
  MTT: 0.811
[7]; [12]
  GE-HTS: −0.731
[8]; [12]
  cyt c: 1.006

## COc1cccc(-c2cc(=O)c3cc(OC)ccc3o2)c1 [6,3′-dimethoxyflavone]
[1]; [9]
  nucOX: 0.087
[2]; [9]
  ROS: −0.882
[3]; [9]
  mitoOX: −0.021
[4]; [9]
  Viability: 0.413
[5]; [9]
  ΔΨm: 1.915
[6]; [9]
  MTT: −1.534
[7]; [9]
  GE-HTS: 0.072
[8]; [9]
  cyt c: 0.245

## C=C1C2CC[C@@]3(C)[C@H](c4ccoc4)OC(=O)C[C@]13O[C@H]1CC(=O)C(C)(C)[C@H](C(OC(C)=O)C(=O)OC)[C@@]21C (some centres unmarked) [6-acetoxyangolensic acid methyl ester]
[1]; Conc 20 μM
  nucOX (composite Z-score): 1.291
[2]; Conc 20 μM
  ROS (composite Z-score): 1.137
[3]; Conc 20 μM
  mitoOX (composite Z-score): 1.272
[4]; Conc 20 μM
  Viability (composite Z-score): 0.671
[5]; Conc 20 μM
  ΔΨm (composite Z-score): −0.055
[6]; Conc 20 μM
  MTT (composite Z-score): −0.663
[7]; Conc 20 μM
  GE-HTS (composite Z-score): 1.379
[8]; Conc 20 μM
  cyt c (composite Z-score): −0.105

## C=C1C2CC[C@@]3(C)[C@H](c4ccoc4)OC(=O)C[C@]13O[C@H]1CC(=O)C(C)(C)[C@H](C(O)C(=O)OC)[C@@]21C (some centres unmarked) [6-hydroxyangolensic acid methyl ester]
[1]; [9]
  nucOX: −1.425
[2]; [9]
  ROS: −0.249
[3]; [9]
  mitoOX: −1.206
[4]; [9]
  Viability: 1.224
[5]; [9]
  ΔΨm: 0.463
[6]; [9]
  MTT: −0.490
[7]; [9]
  GE-HTS: −1.426
[8]; [9]
  cyt c: 0.817

## CC(=O)OCC(=O)[C@@]1(O)CC[C@H]2[C@@H]3C[C@H](C)C4=CC(=O)C=C[C@]4(C)[C@H]3[C@@H](O)C[C@@]21C [6alpha-methylprednisolone acetate]
[1]; Conc 20 μM
  nucOX (composite Z-score): −0.518
[2]; Conc 20 μM
  ROS (composite Z-score): 0.321
[3]; Conc 20 μM
  mitoOX (composite Z-score): 0.750
[4]; Conc 20 μM
  Viability (composite Z-score): −0.480
[5]; Conc 20 μM
  ΔΨm (composite Z-score): −0.462
[6]; Conc 20 μM
  MTT (composite Z-score): −1.192
[7]; Conc 20 μM
  GE-HTS (composite Z-score): −0.130
[8]; Conc 20 μM
  cyt c (composite Z-score): −0.364

## CC1(C)C(=O)C=C[C@@]2(C)C1CC(=O)[C@@]1(C)C3=CC(=O)O[C@@H](c4ccoc4)[C@]3(C)CCC12 (some centres unmarked) [7-deacetoxy-7-oxodeoxygedunin]
[1]; [9]
  nucOX: −1.586
[2]; [9]
  ROS: −0.489
[3]; [9]
  mitoOX: −1.925
[4]; [9]
  Viability: 0.224
[5]; [9]
  ΔΨm: 0.757
[6]; [9]
  MTT: −1.467
[7]; [9]
  GE-HTS: −1.791
[8]; [9]
  cyt c: 0.166

## CC(=O)O[C@H]1C[C@@H](OC(C)=O)C(C)(C)C2CC(=O)[C@]3(C)C(CC[C@@]4(C)[C@H](c5ccoc5)OC(=O)[C@H]5O[C@]543)[C@]21C (some centres unmarked) [7-deacetoxy-7-oxokhivorin]
[1]; [9]
  nucOX: 0.690
[2]; [9]
  ROS: 0.070
[3]; [9]
  mitoOX: 0.738
[4]; [9]
  Viability: 0.053
[5]; [9]
  ΔΨm: 0.258
[6]; [9]
  MTT: −0.095
[7]; [9]
  GE-HTS: 0.777
[8]; [9]
  cyt c: −0.184

## CC(=O)O[C@H]1C[C@@H](OC(C)=O)C(C)(C)C2C[C@@H](O)[C@]3(C)C(CC[C@@]4(C)[C@H](c5ccoc5)OC(=O)[C@H]5O[C@]543)[C@]21C (some centres unmarked) [7-deacetylkhivorin]
[1]; [9]
  nucOX: 0.543
[2]; [9]
  ROS: −0.618
[3]; [9]
  mitoOX: 0.188
[4]; [9]
  Viability: 0.893
[5]; [9]
  ΔΨm: −0.049
[6]; [9]
  MTT: 0.608
[7]; [9]
  GE-HTS: 0.477
[8]; [9]
  cyt c: 0.079
